Drawing on US9580390B2, “Indazole compounds as kinase inhibitors and method of treating cancer with same” (University Health Network, priority 2011, dated 2017), this text covers IC50 and GI50 for 20 compounds.

Each structure is given as a SMILES string. Where two headings read alike, the source gives them in different places.

Test [1] has as its target T1, human TTK (Homo sapiens, UniProt P33981).
T1 construct: amino terminal GST fusion of full length human TTK; purchased Invitrogen
T1 sequence (P33981 1-857): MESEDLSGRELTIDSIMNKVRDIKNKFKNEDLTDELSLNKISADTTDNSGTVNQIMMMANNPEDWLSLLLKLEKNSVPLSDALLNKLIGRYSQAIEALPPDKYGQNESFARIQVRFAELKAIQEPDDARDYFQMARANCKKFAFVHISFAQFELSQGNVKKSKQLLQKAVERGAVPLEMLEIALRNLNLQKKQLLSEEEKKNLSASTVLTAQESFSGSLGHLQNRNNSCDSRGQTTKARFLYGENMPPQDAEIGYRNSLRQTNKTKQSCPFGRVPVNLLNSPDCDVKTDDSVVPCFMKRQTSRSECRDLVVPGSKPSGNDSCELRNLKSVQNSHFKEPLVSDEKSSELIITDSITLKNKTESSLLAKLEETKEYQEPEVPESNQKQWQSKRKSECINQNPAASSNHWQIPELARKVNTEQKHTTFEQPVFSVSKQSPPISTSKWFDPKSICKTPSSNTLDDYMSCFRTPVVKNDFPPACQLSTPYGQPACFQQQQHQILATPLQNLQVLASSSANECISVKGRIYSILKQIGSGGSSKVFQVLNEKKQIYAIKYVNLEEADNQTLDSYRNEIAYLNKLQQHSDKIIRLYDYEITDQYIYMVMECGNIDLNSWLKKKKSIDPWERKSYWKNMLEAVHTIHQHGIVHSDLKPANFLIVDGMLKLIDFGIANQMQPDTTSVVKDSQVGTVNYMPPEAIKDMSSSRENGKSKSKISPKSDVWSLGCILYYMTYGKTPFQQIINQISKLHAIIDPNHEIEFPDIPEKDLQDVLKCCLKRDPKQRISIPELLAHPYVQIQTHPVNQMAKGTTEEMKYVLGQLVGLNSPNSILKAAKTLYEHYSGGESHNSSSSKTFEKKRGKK
The experiment in a line: TTK inhibition assay (indirect ELISA). The test is classed as biochemical. The following applies: read-out: TTK IC50 Range.

The subject of test [2] is Breast cancer cells. Put plainly: Cancer cell line growth inhibition (SRB assay). The test is classed as cell-based. Particulars: Homo sapiens; MDA-MB-468; read-out: Cancer Cell Line GI50 Range MDA-MB-468. A general note: Sulforhodamine B stains cellular protein and so reports cell mass.
The test system of test [3] is colon cancer cells (HCT116). The experiment in a line: Cancer cell line growth inhibition (SRB assay). The format is cell-based. The following applies: Homo sapiens, HCT-116, read-out: Cancer Cell Line GI50 Range HCT116.
The subject of test [4] is ovarian cancer cells (PA-1). The experiment in a line: Cancer cell line growth inhibition (SRB assay). The format is cell-based. The following applies: read-out: Cancer Cell Line GI50 Range PA-1.
Where [5] appears, read: HCT116 colon cancer cells, SRB assay.
Setting [6] is: PA-1 ovarian cancer cells, SRB assay.

In the case of `Cc1cc(=O)n(C)c2ccc(-c3n[nH]c4ccc(C(=O)NCC5(N6CCOCC6)CCCCC5)cc34)cc12` [Example A491, 3-(1,4-dimethyl-2-oxo-1,2-dihydroquinolin-6-yl)-N-((1-morpholinocyclohexyl)methyl)-1H-indazole-5-carboxamide], the IC50 in test [1] was less than 100 nM. The concentration for 50% growth inhibition (GI50) in test [2] is greater than 500 nM; in test [3] it was greater than 500 nM; in test [4] (Homo sapiens, PA-1), greater than 500 nM.

For `CC(C)[C@@H](NC(=O)c1ccc2[nH]nc(-c3ccc(N4CC(N5CCOCC5)C4)cc3)c2c1)c1ccccc1Cl` [Example A317, (R)-N-(1-(2-chlorophenyl)-2-methylpropyl)-3-(4-(3-morpholinoazetidin-1-yl)phenyl)-1H-indazole-5-carboxamide], the IC50 in test [1] is less than 100 nM. Besides, the GI50 was 100 to 500 nM in test [2]; 100 to 500 nM in test [3]; less than 100 nM in test [4] (Homo sapiens, PA-1).

For `O=CN1C2CCC1CC(Oc1ccc(-c3n[nH]c4ccc(C(=O)N[C@H](c5ccccn5)C5CCCC5)cc34)cc1)C2` (stereo partly drawn) [Example A348, N-((S)-cyclopentyl(pyridin-2-yl)methyl)-3-(4-(((1R,3R,5S)-8-formyl-8-azabicyclo[3.2.1]octan-3-yl)oxy)phenyl)-1H-indazole-5-carboxamide], the IC50 in test [1] was less than 100 nM. The GI50 in test [2] is less than 100 nM; in test [3], less than 100 nM; in test [4] (Homo sapiens, PA-1), less than 100 nM.

Consider `CC(C)[C@H](NC(=O)c1ccc2[nH]nc(-c3ccc(N4C5CCC4CC(O)C5)cc3)c2c1)c1ccccc1Cl` (stereo partly drawn) [Example A514, N-((S)-1-(2-chlorophenyl)-2-methylpropyl)-3-(4-((1R,3R,5S)-3-hydroxy-8-azabicyclo[3.2.1]octan-8-yl)phenyl)-1H-indazole-5-carboxamide], for which, in test [1], the IC50 is less than 100 nM. In addition, the 50% growth inhibitory concentration (GI50) in test [2] was less than 100 nM.

On to `O=C(NC(c1ccccc1)C1CC1)c1ccc2[nH]nc(-c3ccc(OCCn4ccnc4)cc3)c2c1` (stereo not shown) [Example A165, 3-(4-(2-(1H-imidazol-1-yl)ethoxy)phenyl)-N-(cyclopropyl(phenyl)methyl)-1H-indazole-5-carboxamide], for which the IC50 in test [1] was less than 100 nM. The GI50 in test [3] (setting [5]) and in test [4] (setting [6]) was greater than 500 nM in each case.

With `O=C(NCC1(N2CCOCC2)CCCCC1)c1ccc2[nH]nc(-c3ccc(OC4CCN(C5COC5)CC4)cc3)c2c1` [Example A506, N-((1-morpholinocyclohexyl)methyl)-3-(4-((1-(oxelan-3-yl)piperidin-4-yl)oxy)phenyl)-1H-indazole-5-carboxamide], the IC50 in test [1] is less than 100 nM. For the same compound, the GI50 was less than 100 nM in test [3] and less than 100 nM in test [4] (Homo sapiens, PA-1).

For `O=C(NC(c1ccccn1)C1CC1)c1ccc2[nH]nc(-c3ccc(N4CCOCC4)cc3)c2c1` (stereo not shown) [Example A383, N-(cyclopropyl(pyridin-2-yl)methyl)-3-(4-morpholinophenyl)-1H-indazole-5-carboxamide], the IC50 in test [1] is less than 100 nM. In addition, the GI50 in test [3] lay within 100 to 500 nM; in test [4] (Homo sapiens, PA-1), 100 to 500 nM.

For the compound `O=C(NCC1(N2CCOCC2)CCCC1)c1ccc2[nH]nc(-c3ccc(O[C@@H]4CCC[C@H](O)C4)cc3)c2c1` (relative stereo) [Example A496, rel-3-(4-(((1R,3S)-3-hydroxycyclohexyl)oxy)phenyl)-N-((1-morpholinocyclopentyl)methyl)-1H-indazole-5-carboxamide], in test [1], the IC50 is less than 100 nM. For the same compound, the GI50 in test [3] (setting [5]) and in test [4] (setting [6]) was 100 to 500 nM throughout.

For the compound `O=C(NC(c1ccccn1)C1CCCC1)c1ccc2[nH]nc(-c3ccc(OC4CCN(C5COC5)CC4)cc3)c2c1` (stereo not shown) [Example A319, N-(cyclopentyl(pyridin-2-yl)methyl)-3-(4-((1-(oxetan-3-yl)piperidin-4-yl)oxy)phenyl)-1H-indazole-5-carboxamide], the half-inhibitory concentration (IC50) in test [1] was less than 100 nM. For the same compound, the GI50 is 100 to 500 nM in test [3] and less than 100 nM in test [4] (Homo sapiens, PA-1).

With `CC(C)C(NC(=O)c1ccc2[nH]nc(-c3ccc(OC4CCN(C5COC5)CC4)cc3)c2c1)c1ccccn1` (stereo not shown) [Example A327, N-(2-methyl-1-(pyridin-2-yl)propyl)-3-(4-((1-(oxetan-3-yl)piperidin-4-yl)oxy)phenyl)-1H-indazole-5-carboxamide], the IC50 in test [1] is less than 100 nM. In addition, the GI50 in test [3] is less than 100 nM; in test [4] (Homo sapiens, PA-1), less than 100 nM.

As for `CN1CCC(Oc2ccc(-c3n[nH]c4ccc(C(=O)NCC5(c6ccsc6)CCCCC5)cc34)cc2)CC1` [Example A472, 3-(4-((1-methylpiperidin-4-yl)oxy)phenyl)-N-((1-(thiophen-3-yl)cyclohexyl)methyl)-1H-indazole-5-carboxamide], the IC50 in test [1] was less than 100 nM. Moreover, the GI50 in test [3] (setting [5]) and in test [4] (setting [6]) was 100 to 500 nM in each case.

Turning to `CN1CCC(Oc2ccc(-c3n[nH]c4ccc(C(=O)NCC5(c6ccncc6)CCOCC5)cc34)cc2)CC1` [Example A478, 3-(4-((1-methylpiperidin-4-yl)oxy)phenyl)-N-((4-(pyridin-4-yl)tetrahydro-2H-pyran-4-yl)methyl)-1H-indazole-5-carboxamide], in test [1], the IC50 was less than 100 nM. The GI50 in test [3] (setting [5]) and in test [4] (setting [6]) was greater than 500 nM throughout.

On to `CN1C2CCC1CC(Oc1ccc(-c3n[nH]c4ccc(C(=O)N[C@H](c5ccccn5)C5CC5)cc34)cc1)C2` (stereo partly drawn) [Example A397, N-((S)-cyclopropyl(pyridin-2-yl)methyl)-3-(4-((8-methyl-8-azabicyclo[3.2.1]octan-3-yl)oxy)phenyl)-1H-indazole-5-carboxamide], for which, in test [1], the IC50 was less than 100 nM. Besides, the GI50 in test [3] is less than 100 nM; in test [4] (Homo sapiens, PA-1) it was less than 100 nM.

Regarding `CN1CCC(Oc2ccc(-c3n[nH]c4ccc(C(=O)NCC5(c6ccccc6)CC5)cc34)cc2)CC1` [Example A471, 3-(4-((1-methylpiperidin-4-yl)oxy)phenyl)-N-((1-phenylcyclopropyl)methyl)-1H-indazole-5-carboxamide], the IC50 in test [1] was less than 100 nM. In addition, the 50% growth inhibitory concentration (GI50) in test [3] (setting [5]) and in test [4] (setting [6]) was 100 to 500 nM each time.

Regarding `O=C(N[C@H](c1ccccc1)C1CC1)c1ccc2[nH]nc(-c3ccc(N4CCN(C5COC5)CC4)cc3)c2c1` [Example A399, (S)-N-(cyclopropyl(phenyl)methyl)-3-(4-(4-(oxetan-3-yl)piperazin-1-yl)phenyl)-1H-indazole-5-carboxamide], in test [1], the half-maximal inhibitory concentration (IC50) is less than 100 nM. Moreover, the GI50 in test [3] is less than 100 nM; in test [4] (Homo sapiens, PA-1), 100 to 500 nM.

As to `O=C(NCC1(N2CCOCC2)CCCCC1)c1ccc2[nH]nc(-c3ccc(O[C@@H]4CCC[C@H](O)C4)cc3)c2c1` (relative stereo) [Example A497, cis-3-(4-(((1R,3S)-3-hydroxycyclohexyl)oxy)phenyl)-N-((1-morpholinocyclohexyl)methyl)-1H-indazole-5-carboxamide], the IC50 in test [1] is less than 100 nM. The GI50 in test [3] (setting [5]) and in test [4] (setting [6]) was 100 to 500 nM in each case.

For the compound `CC(C)(O)C1CCN(c2ccc(-c3n[nH]c4ccc(C(=O)N[C@H](c5ccccn5)C5CC5)cc34)cc2)CC1` [Example A351, (S)-N-(cyclopropyl(pyridin-2-yl)methyl)-3-(4-(4-(2-hydroxypropan-2-yl)piperidin-1-yl)phenyl)-1H-indazole-5-carboxamide], the IC50 in test [1] was less than 100 nM. The GI50 in test [3] is less than 100 nM; in test [4] (Homo sapiens, PA-1), less than 100 nM.

Regarding `O=C(NCC1(N2CCOCC2)CCCCC1)c1ccc2[nH]nc(-c3ccc(OC4CCN(CCO)CC4)cc3)c2c1` [Example A432, 3-(4-((1-(2-hydroxyethyl)piperidin-4-yl)oxy)phenyl)-N-((1-morpholinocyclohexyl)methyl)-1H-indazole-5-carboxamide], in test [1], the IC50 is less than 100 nM. For the same compound, the GI50 in test [3] is less than 100 nM; in test [4] (Homo sapiens, PA-1), less than 100 nM.

On to `O=C(N[C@H](c1ccccn1)C1CCCC1)c1ccc2[nH]nc(-c3ccc(N4C5CCC4CC(O)C5)cc3)c2c1` (stereo partly shown) [Example A513], for which, in test [1], the IC50 is less than 100 nM. The concentration for 50% growth inhibition (GI50) in test [2] was less than 100 nM.

Consider `CN1CCC(Oc2ccc(-c3n[nH]c4ccc(C(=O)NCC5(N6CCOCC6)CCCC5)cc34)cc2)CC1` [Example A428, 3-(4-((1-methylpiperidin-4-yl)oxy)phenyl)-N-((1-morpholinocyclopentyl)methyl)-1H-indazole-5-carboxamide], for which the IC50 in test [1] is less than 100 nM. For the same compound, the GI50 in test [3] (setting [5]) and in test [4] (setting [6]) was 100 to 500 nM throughout.

As usually defined, the IC50 is the concentration needed to halve the response being measured. As usually defined, the GI50 is the concentration giving 50% growth inhibition.
